Source: the NIST ThermoML archive (doi:10.1016/j.tca.2018.10.026)
± gives the expanded uncertainty stated by the source.

Experiment: Molar enthalpy of transition or fusion
Settings: Crystal; DSC

SMILES: O.O.O.O.O.O.[Br-].[Br-].[Ca+2] [calcium bromide hexahydrate]
- Molar enthalpy of transition or fusion: 44 ± 0.92 kJ/mol
